Test results published in US5045190A, “Chromatography apparatus” (priority 1990, dated 1991).

Experiments:
[1] = biological target: T1, horse serum cholinesterase (Equus caballus, UniProt P81908); assay: Inhibition of horse (serum) cholinesterase, Ki by the method of Dixon; type: biochemical
T1 construct: purchased Sigma Chemicals Co; host or cells: horse serum
Text: E. coli beta-galactosidase, chromatographically purified, was obtained from Worthington Biochemicals. P-aminophenyl-beta-D-thiogalactopyranoside (APGP) was purchased from Calbiochem. O-nitrophenyl-beta-D-galactopyranoside (ONPG), bovine trypsin (twice recrystallized), DL-benzoylarginine-p-nitroanilide (DL-BAPNA), p-aminobenzamidine (PAB), cholinesterase (affinity purified from horse serum), procainamide, dithiobisnitrobenzoate, and butyrylthiocholine were obtained from Sigma Chemicals Co. Tresyl chloride (2,2,2-trifluoroethanesulfonyl chloride) was obtained from Fluka and ethyl-(dimethyl-aminopropyl)carbodiimide (EDC) from Aldrich. The surfactant Sandopan JA36 was obtained from Sandoz Chemicals and the surfactant octaethylene glycol n-hexadecyl ether (C16 E8) was obtained from Nikkol Chemicals Co. (Japan). The structures of these surfactants is as shown below: [drawing 1]
The molar extinction coefficient of C16 E8 -pyridinium at 259 nm is […] (by dry weight). The product final yield is 71.9%.

[2] = reported pI; cited from earlier work
[3] = Stability of trypsin solution at 4 degrees Celsius (BAPNA activity assay); type: physicochemical; settings: 2.9 mg/ml in Buffer A, over three days
Experimental: This example was conducted in accordance with Example 18 above. The activity of trypsin solutions were determined by a method similar to that described by Erlanger et al., Arch. Biochem. Biophys. 95, 271 (1961), using BAPNA as substrate. An aliquot (0.5 milliliter) of the trypsin solution to be assayed was diluted in 1.5 milliliters of 0.05 M Tris-HCl buffer, pH 8.15, containing 0.02 M CaCl2 in a 3.5 milliliter disposable polystyrene cuvette. A 100 microliter aliquot of a 10^-2 M solution of BAPNA in dimethylsulfoxide was then added to this solution. The rate of change in absorbance at 388 nm at 25 degrees Celsius was then measured in a Schimadzu UV 160 spectrophotometer. One unit of activity was defined as the amount of enzyme causing an absorbance change of 0.1 per minute under these conditions.
A solution of trypsin (2.9 milligrams of protein per milliliter) was prepared in Buffer A and several activity assays were made over the course of three days to determine its stability at 4 degrees Celsius. […] In this case the eluted peaks were collected and assayed for enzymatic activity.

T1 sequence (P81908 whole entry): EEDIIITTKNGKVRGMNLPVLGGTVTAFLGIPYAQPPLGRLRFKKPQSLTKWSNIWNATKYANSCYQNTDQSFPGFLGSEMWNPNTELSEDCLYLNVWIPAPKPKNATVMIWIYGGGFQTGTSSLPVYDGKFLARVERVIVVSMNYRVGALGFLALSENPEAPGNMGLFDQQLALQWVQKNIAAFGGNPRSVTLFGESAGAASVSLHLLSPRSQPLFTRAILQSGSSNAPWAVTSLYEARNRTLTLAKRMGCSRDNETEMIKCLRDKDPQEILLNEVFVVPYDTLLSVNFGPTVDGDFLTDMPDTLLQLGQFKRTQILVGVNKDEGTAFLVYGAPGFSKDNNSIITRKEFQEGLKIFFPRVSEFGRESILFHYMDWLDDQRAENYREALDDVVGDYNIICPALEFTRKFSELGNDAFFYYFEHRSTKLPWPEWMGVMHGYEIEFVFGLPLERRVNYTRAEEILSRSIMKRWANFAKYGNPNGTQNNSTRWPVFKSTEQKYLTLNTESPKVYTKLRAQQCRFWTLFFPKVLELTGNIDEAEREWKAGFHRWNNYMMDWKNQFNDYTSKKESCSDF

## CCCCCCCCCCCCCCCCOCCOCCOCCOCCOCCOCCOCCOCC[n+]1ccccc1 [C16 E8 -pyridinium, N-(n-hexadecyloctaethoxy)pyridinium]
[1]; horse serum cholinesterase, method of Dixon, read-out: Ki toward horse serum cholinesterase
  Ki: 514 nM
[1]; surface active HPLC peak, retention time 127.5 minutes
  inhibition of the enzymatic activity of horse cholinesterase: significantly inhibits

## CCCCCCCCCCCCCCCCOCCOCCOCCOCCOCCOCCOCCOCCO [Unmodified surfactant, octaethylene glycol n-hexadecyl ether, reference compound]
[1]; even at concentrations as high as 10^-3 M
  effect on the activity of horse cholinesterase: does not have any effect

## Lysozyme: test protein, isoelectric point (pI) of 11.0
[2]
  isoelectric point (pI): 11.0

B1: trypsin: bovine trypsin (twice recrystallized) (protein, UniProt P00760 24-246, looked up)
Serine protease 1: IVGGYTCGANTVPYQVSLNSGYHFCGGSLINSQWVVSAAHCYKSGIQVRLGEDNINVVEGNEQFISASKSIVHPSYNSNTLNNDIMLIKLKSAASLNSRVASISLPTSCASAGTQCLISGWGNTKSSGTSYPDVLKCLKAPILSDSSCKSAYPGQITSNMFCAGYLEGGKDSCQGDSGGPVVCSGKLQGIVSWGSGCAQKNKPGVYTKVCNYVSWIKQTIASN
[3]
  loss in tryptic activity (stability of solution): No significant loss in tryptic activity was observed
